Laboratory results reported in the Kinase Knowledgebase extract (Sharma et al. 2016).
“And” between values parts separate entries of the source, which are not always exact repeats. Equal values may be shown once.

target: MAPK14 (human) (UniProt Q16539); assay: Enzyme Assay
Sequence (Q16539 whole entry, looked up): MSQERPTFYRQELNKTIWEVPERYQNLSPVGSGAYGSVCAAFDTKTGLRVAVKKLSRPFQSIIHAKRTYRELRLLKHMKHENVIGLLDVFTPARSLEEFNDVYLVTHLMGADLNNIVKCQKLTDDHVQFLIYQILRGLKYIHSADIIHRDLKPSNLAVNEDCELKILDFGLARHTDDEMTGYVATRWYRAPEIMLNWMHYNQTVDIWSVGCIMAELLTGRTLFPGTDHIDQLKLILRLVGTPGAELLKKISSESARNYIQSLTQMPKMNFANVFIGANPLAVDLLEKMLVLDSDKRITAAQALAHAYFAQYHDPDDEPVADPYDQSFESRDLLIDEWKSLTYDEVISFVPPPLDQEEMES

Compound	Ki	Kd [nM]
CC(C)(C)c1cc(NC(=O)Nc2cccc3ccccc23)n(-c2cccc(C(=O)NCc3ccncn3)c2)n1	327 nM	
CC(C)(C)c1cc(NC(=O)Nc2cccc3ccccc23)n(-c2cccc(C(=O)NC3CCN(CCN4CCOCC4)CC3)c2)n1	885 nM	
CCN(CCN(C)C)C(=O)c1cccc(-n2nc(C(C)(C)C)cc2NC(=O)Nc2cccc3ccccc23)c1	735 nM	
CC(C)[C@H](CO)CNC(=O)c1cccc(-n2nc(C(C)(C)C)cc2NC(=O)Nc2cccc3ccccc23)c1	471 nM	
CC(C)(C)c1cc(NC(=O)Nc2cccc3ccccc23)n(-c2cccc(C(=O)NCCCN3CCCC3)c2)n1	301 nM	
CC(C)CN(CCCN)C(=O)c1cccc(-n2nc(C(C)(C)C)cc2NC(=O)Nc2cccc3ccccc23)c1	312 nM	
CN1CCN(CCNC(=O)c2cccc(-n3nc(C(C)(C)C)cc3NC(=O)Nc3cccc4ccccc34)c2)CC1	140 nM	
COCCCN1CCC(NC(=O)c2cccc(-n3nc(C(C)(C)C)cc3NC(=O)Nc3cccc4ccccc34)c2)CC1	336 nM	
CC(C)(C)c1cc(NC(=O)Nc2cccc3ccccc23)n(-c2cccc(C(=O)NCCCN3CCOCC3)c2)n1	291 nM	
CC(C)CC(CNC(=O)c1cccc(-n2nc(C(C)(C)C)cc2NC(=O)Nc2cccc3ccccc23)c1)C(N)=O (stereo not given)	786 nM	
CC(C)(C)c1cc(NC(=O)Nc2cccc3ccccc23)n(-c2cccc(C(=O)N[C@@H]3CS(=O)(=O)C[C@H]3O)c2)n1	112 nM	
CC(C)(C)c1cc(NC(=O)Nc2cccc3ccccc23)n(-c2cccc(C(=O)NCCNc3ccccc3)c2)n1	433 nM	
CC(C)(C)c1cc(NC(=O)Nc2cccc3ccccc23)n(-c2cccc(C(=O)NCC#N)c2)n1	250 nM and 252 nM	55
CC(C)(C)c1cc(NC(=O)Nc2cccc3ccccc23)n(-c2cccc(C(=O)N(CCCN)C3CCCCC3)c2)n1	89 nM	
